The EC50 is the concentration that produces a half-maximal response. As usually defined, the Emax is the size of the effect at its maximum, as opposed to the concentration needed.

In this assay the target is T1, human GR (Homo sapiens, UniProt P04150).
T1 construct: naturally expresses the human GR; endogenous in cells
T1 sequence (P04150 1-777): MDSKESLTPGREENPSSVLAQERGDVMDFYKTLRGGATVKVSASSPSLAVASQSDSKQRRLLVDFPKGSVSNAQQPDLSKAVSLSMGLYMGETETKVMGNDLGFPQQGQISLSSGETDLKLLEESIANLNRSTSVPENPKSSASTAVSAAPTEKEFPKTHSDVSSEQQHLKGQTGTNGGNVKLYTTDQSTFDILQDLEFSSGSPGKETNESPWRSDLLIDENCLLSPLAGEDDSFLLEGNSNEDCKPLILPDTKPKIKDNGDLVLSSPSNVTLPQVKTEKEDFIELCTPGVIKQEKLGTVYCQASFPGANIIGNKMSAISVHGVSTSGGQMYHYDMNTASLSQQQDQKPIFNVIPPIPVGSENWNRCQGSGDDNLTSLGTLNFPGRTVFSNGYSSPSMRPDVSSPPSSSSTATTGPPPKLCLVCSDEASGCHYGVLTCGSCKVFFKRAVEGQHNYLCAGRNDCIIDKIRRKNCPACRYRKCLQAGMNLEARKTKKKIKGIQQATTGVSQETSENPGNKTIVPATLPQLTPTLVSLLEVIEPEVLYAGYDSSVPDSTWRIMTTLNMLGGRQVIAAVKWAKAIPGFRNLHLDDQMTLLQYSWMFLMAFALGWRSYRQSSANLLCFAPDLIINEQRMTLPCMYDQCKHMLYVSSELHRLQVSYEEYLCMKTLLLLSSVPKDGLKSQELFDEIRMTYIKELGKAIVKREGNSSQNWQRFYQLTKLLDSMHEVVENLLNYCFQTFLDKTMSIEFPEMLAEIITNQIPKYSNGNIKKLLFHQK
Briefly: Transrepression assay (GITAR), TNFα-β-lactamase reporter in U937 cells. The format is cell-based. The conditions noted are these: for EC50 / Transrepression U937 Cells GITAR Emax (%): U937 cells; for EC50: IP = inflection point; for Transrepression U937 Cells GITAR Emax (%) / Emax: activity repressed by 100 nM dexamethasone alone set as 100%; for Emax: U-937, U937 cells. The essentials:
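U937 cells stably carrying TNFα promoter–β-lactamase, endogenous GR, preincubated with compound 30–45 min at 37° C., then stimulated with 5 ng/ml PMA plus 100 ng/ml LPS for ~18 h. CCF2-AM read-out; repression by 100 nM dexamethasone set as 100%.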

The structures appear in SMILES notation.

On to `CC[C@]12Cc3cnn(-c4ccccc4)c3C=C1CC[C@@]2(O)CC(O)c1ccccn1` (single isomer, unassigned) [Example 82a], for which the EC50 was 217 nM and the “Transrepression U937 Cells GITAR Emax (%)” value turned out to be 54%.
For the molecule `OCc1ccccc1CC[C@]1(O)CCC2=Cc3c(cnn3-c3ccc(F)cc3)C[C@@]21C1CC1` [Example 2, (4aR,5R)-4a-Cyclopropyl-1-(4-fluorophenyl)-5-{2-[2-(hydroxymethyl)phenyl]ethyl}-1,4,4a,5,6,7-hexahydrocyclopenta[f]indazol-5-ol], the EC50 stood at 8 nM and the Emax was 79%.
Turning to `NC(=O)C(O)c1ccccc1CC[C@]1(O)CCC2=Cc3c(cnn3-c3ccc(F)cc3)C[C@@]21C1CC1` (single isomer, unassigned) [Example 3a], the EC50 is 85 nM and the “Transrepression U937 Cells GITAR Emax (%)” value is given as 72%.
On the same counts, the results for `CC[C@]12Cc3cnn(-c4ccccc4)c3C=C1CC[C@@]2(O)CC(O)c1ccccn1` (single isomer, unassigned) [Example 82b] are 277 nM and 44%.
On the same counts, the results for `OC(C[C@]1(O)CCC2=Cc3c(cnn3-c3ccc(F)cc3)C[C@@]21C1CC1)c1ccc(F)cn1` (single isomer, unassigned) [Example 79b] are 282 nM and 54%.
For the molecule `CC[C@]12Cc3cnn(-c4ccc(F)cc4)c3C=C1CC[C@@]2(O)CCc1ncccc1S(C)(=O)=O` [Example 80, (4aS,5R)-4a-Ethyl-1-(4-fluorophenyl)-5-{2-[3-(methylsulfonyl)pyridin-2-yl]ethyl}-1,4,4a,5,6,7-hexahydrocyclopenta[f]indazol-5-ol], the EC50 stood at 56 nM and the Emax came to 70%.
On to `CC[C@]12Cc3cnn(-c4ccccc4)c3C=C1CC[C@@]2(O)CCc1ncccc1S(=O)(=O)C(C)C` [Example 81, (4aS,5R)-4a-Ethyl-5-{2-[3-(iso-propylsulfonyl)pyridin-2-yl]ethyl}-1-phenyl-1,4,4a,5,6,7-hexahydrocyclopenta[f]indazol-5-ol], for which the EC50 is 53 nM and the Emax turned out to be 68%.

These data come from patent publication US20120214847A1, “2-[1-PHENYL-5-HYDROXY-4a-SUBSTITUTED-HEXAHYDROCYCLOPENTA[F]INDAZOL-5-YL]ETHYL PHENYL DERIVATIVES AS GLUCOCORTICOID RECEPTOR LIGANDS” (Merck Sharp & Dohme Corp., priority 2009, published 2012).
